Here are results for eleven compounds from ChEMBL document CHEMBL1201862, “PubChem BioAssay data set” (2004).

What all share (experiment): DTP human tumour cell line panel, 48 h
In experiment [1] the test system is HOP-62.
For experiment [2], the system named is HCT-116.
Experiment [3] relates to DU-145.
For experiment [4], the system named is A549.
Experiment [5] deals with SNB-75.
Experiment [6] relates to SR.
The subject of experiment [7] is OVCAR-5.
The subject of experiment [8] is MOLT-4.
Experiment [9] has as its system U-251.
The test system of experiment [10] is SK-MEL-5.
The test system of experiment [11] is CAKI-1.
For experiment [12], the system named is M14.
The test system of experiment [13] is SK-MEL-2.
For experiment [14], the system named is MDA-N.
Experiment [15] relates to SF-539.
For experiment [16], the system named is MDA-MB-231.
Experiment [17] deals with NCI-H23.
The subject of experiment [18] is SNB-19.
In experiment [19] the test system is 786-0.
In experiment [20] the test system is DLD-1.

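In this assay, cells in 96-well plates receive the compound at five concentrations for 48 hours. Endpoints are linearly interpolated between the surrounding concentrations. The concentration for 50% growth inhibition is given as GI50.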 Calls of active or inactive are those of the source. No stated cut-off is given here; in the data, active = GI50 up to about 1.1 µM and inactive = higher.

Turning to `NC1CCC(c2cc3ccccc3s2)(N2CCCCC2)CC1` (stereo not drawn), the GI50 – broadly, the concentration that inhibits growth by half – is 1.35 µM (inactive) in experiment [1]; 1.69 µM (inactive) in experiment [2]; 4.67 µM (inactive) in experiment [3]; 1.77 µM (inactive) in experiment [4]; 10.5 µM (inactive) in experiment [5]; 1.54 µM (inactive) in experiment [6]. Also, the GI50 in [7] is 1.48 µM (inactive); in experiment [8] it was 1.32 µM (inactive); in experiment [9] it was 1.53 µM (inactive); in experiment [10], 2.08 µM (inactive); in experiment [11] it was 2.57 µM (inactive); in experiment [12] it was 1.54 µM (inactive). The GI50 is 1.55 µM (inactive) in [13]; 1.74 µM (inactive) in experiment [14]; 2.06 µM (inactive) in experiment [15]; 3.35 µM (inactive) in [16]; 1.64 µM (inactive) in experiment [17]; 12.5 µM (inactive) in experiment [18]. For the same compound, the GI50 in experiment [19] is 1.5 µM (inactive).
`CCCNC(=O)Cn1c(-c2ccccc2)cc2ccccc21`: the GI50 was 67.3 µM (inactive) in experiment [1]; 24.2 µM (inactive) in [2]; > 100 µM (inactive) in experiment [3]; 67.1 µM (inactive) in [4]; 25.9 µM (inactive) in [5]; > 100 µM (inactive) in experiment [6]. Besides, the GI50 in experiment [7] is > 100 µM (inactive); in experiment [8] it was 85.1 µM (inactive); in experiment [9], > 100 µM (inactive); in experiment [10] it was 30.5 µM (inactive); in experiment [11], 52 µM (inactive); in experiment [12] it was > 100 µM (inactive). The GI50 in experiment [13] is 69.8 µM (inactive); in [14] it was 83.4 µM (inactive); in experiment [15], > 100 µM (inactive); in [16] it was 32.7 µM (inactive); in experiment [17], 48 µM (inactive); in experiment [18], > 100 µM (inactive). In addition, the GI50 in experiment [19] was 54 µM (inactive).
As to `COc1cc2c(cc1OC)C(C(=O)c1cccc(OC)c1OC)C(=O)N(C)CC2` (stereo not drawn), the GI50 in [1], in [2], in [4], in experiment [5], in experiment [8] and in experiment [20] was > 100 µM (inactive) in each case. In addition, the GI50 in experiment [9], in experiment [10], in experiment [11], in experiment [12], in experiment [13] and in [17] was > 100 µM (inactive) in each case. In addition, the GI50 in experiment [18] and in experiment [19] was > 100 µM (inactive) each time.
In the case of `Cc1ccc2nc(-c3nccn3C)cc(C(=O)NC(C)CN(C)C)c2c1` (stereo not drawn), the GI50 in experiment [1] was 34.9 µM (inactive); in experiment [2], > 100 µM (inactive); in experiment [3], > 100 µM (inactive); in experiment [4] it was 89.9 µM (inactive); in experiment [5], > 100 µM (inactive); in experiment [6], 0.711 µM (active). In addition, the GI50 in experiment [7] is > 100 µM (inactive); in [8], > 10 µM (inactive); in [9], > 100 µM (inactive); in experiment [10] it was 97.9 µM (inactive); in experiment [11] it was > 100 µM (inactive); in [12], > 100 µM (inactive). For the same compound, the GI50 in experiment [13] is > 100 µM (inactive); in experiment [14], > 100 µM (inactive); in experiment [15], 26.1 µM (inactive); in experiment [16], > 100 µM (inactive); in experiment [17] it was > 100 µM (inactive); in experiment [18], > 100 µM (inactive). Moreover, the GI50 in [19] was > 100 µM (inactive).
Turning to `Cc1cc(N(C)c2ccccc2)nc(N(C)c2ccccc2)n1`, the GI50 in [1] was 31.2 µM (inactive); in [2], 19.6 µM (inactive); in experiment [3] it was 92.3 µM (inactive); in experiment [4], 27.5 µM (inactive); in [5], 41.1 µM (inactive); in experiment [6], 27.7 µM (inactive). Moreover, the GI50 in experiment [7] is 21.2 µM (inactive); in experiment [8] it was 33.7 µM (inactive); in experiment [9], 30.7 µM (inactive); in experiment [10], 27.1 µM (inactive); in experiment [11], > 100 µM (inactive); in experiment [12] it was 41.3 µM (inactive). Moreover, the GI50 in [13] is 15.8 µM (inactive); in experiment [14], 52.4 µM (inactive); in [15], 27.1 µM (inactive); in [16] it was 33.2 µM (inactive); in experiment [17] it was 36.7 µM (inactive); in experiment [18], 88.1 µM (inactive). Also, the GI50 in experiment [19] is 41.3 µM (inactive).
As to `O=CC12C3CCC1C2C(=O)C3` (stereo not drawn), the GI50 in experiment [1], in experiment [2], in [3], in experiment [4], in experiment [5] and in [6] was > 100 µM (inactive) throughout. Moreover, the GI50 in experiment [7], in experiment [8], in [9], in [10], in experiment [11] and in experiment [12] was > 100 µM (inactive) each time. Further, the GI50 in experiment [13], in [14], in experiment [15], in experiment [16], in [17] and in [18] was > 100 µM (inactive) each time. Further, the GI50 in [19] was > 100 µM (inactive).
Turning to `N#CC(c1ccccc1)N(CCc1ccccc1)C(=O)Oc1ccccc1` (stereo not drawn), the GI50 in [1] is 82 µM (inactive); in [2], > 100 µM (inactive); in [3], > 100 µM (inactive); in experiment [4], > 100 µM (inactive); in experiment [5], 25.6 µM (inactive); in [6], > 100 µM (inactive). The GI50 in [7], in experiment [8], in experiment [9], in experiment [10], in [11] and in [12] was > 100 µM (inactive) each time. Besides, the GI50 in [13] was > 100 µM (inactive); in [14], > 100 µM (inactive); in experiment [15] it was > 100 µM (inactive); in experiment [16], > 100 µM (inactive); in [17], > 100 µM (inactive); in experiment [18], 53 µM (inactive). Besides, in experiment [19], the GI50 is > 100 µM (inactive).
For `C=CCOc1ccc(C(=N/NC(=O)c2ccccc2)/N=N/c2ccc([N+](=O)[O-])cc2)cc1OC`, the GI50 in experiment [1] is > 100 µM (inactive); in experiment [2] it was 58.6 µM (inactive); in [3], 77.4 µM (inactive); in experiment [4], > 100 µM (inactive); in experiment [5] it was > 100 µM (inactive); in [6], > 100 µM (inactive). The GI50 is > 100 µM (inactive) in experiment [7]; 92.5 µM (inactive) in experiment [8]; > 100 µM (inactive) in experiment [9]; 76.6 µM (inactive) in [10]; > 100 µM (inactive) in [11]; > 100 µM (inactive) in experiment [12]. The GI50 in experiment [13], in experiment [14], in experiment [15], in [16], in experiment [17] and in experiment [18] was > 100 µM (inactive) throughout. Besides, in experiment [19], the GI50 is > 100 µM (inactive).
Turning to `O=C1CSC(=S)N1/N=C/c1ccc(Cl)c([N+](=O)[O-])c1`, the GI50 was 30.6 µM (inactive) in experiment [1]; 23 µM (inactive) in experiment [2]; 36.6 µM (inactive) in experiment [3]; 46.2 µM (inactive) in experiment [4]; 45 µM (inactive) in [5]; 22.5 µM (inactive) in [6]. Further, the GI50 in [7] is > 100 µM (inactive); in experiment [8], 31.1 µM (inactive); in experiment [9], 18.5 µM (inactive); in experiment [10] it was 53.6 µM (inactive); in experiment [11] it was 33.7 µM (inactive); in [12], 18.8 µM (inactive). In addition, the GI50 in [13] was 29.8 µM (inactive); in experiment [14] it was 22.4 µM (inactive); in [15], 32.8 µM (inactive); in experiment [16], 21.3 µM (inactive); in experiment [17] it was 17.9 µM (inactive); in experiment [18], 22.9 µM (inactive). Besides, the GI50 in experiment [19] was 38.6 µM (inactive).
In the case of `Cc1c2ccncc2c(C)c2c1[nH]c1ccc(Cl)cc12`, the GI50 in [1] was 3.85 µM (inactive); in experiment [2], 1.07 µM (active); in experiment [5] it was 3.55 µM (inactive); in [7], 7.05 µM (inactive); in experiment [20], 2.15 µM (inactive); in [9] it was 5.13 µM (inactive). The GI50 in [10] is 4.75 µM (inactive); in experiment [12], 4.57 µM (inactive); in experiment [13] it was 3.51 µM (inactive); in [15] it was 2.44 µM (inactive); in experiment [17] it was 3.56 µM (inactive); in experiment [18], 2.35 µM (inactive). Besides, in experiment [19], the GI50 is 1.07 µM (active).
`O=C(NCP(=O)(O)O)c1cccnc1` [(NICOTINAMIDOMETHYL)PHOSPHONIC ACID]: the GI50 in [1] was > 100 µM (inactive); in experiment [2] it was > 100 µM (inactive); in experiment [3] it was > 100 µM (inactive); in experiment [4] it was > 100 µM (inactive); in [5], 92.3 µM (inactive); in [6], > 100 µM (inactive). For the same compound, the GI50 in experiment [7], in [8], in experiment [9], in experiment [10], in experiment [11] and in [12] was > 100 µM (inactive) each time. Also, the GI50 in experiment [13], in [14], in [15], in [16], in [17] and in experiment [18] was > 100 µM (inactive) throughout. Besides, the GI50 in [19] was > 100 µM (inactive).
